Results on 8 molecules are retold here after patent US6441177B1 (Hoffmann-La Roche Inc., priority 1995, dated 2002).

In one test the test system is plasma cholesterol. In words: Cholesterol lowering in fat-fed hamsters. It is filed as in vivo. Conditions: fat-fed male golden hamsters, treated 10 days, 200 μmol (about 70-120 mg/kg/ay) in diet, percent of the control animals. How it is done: Cholesterol Lowering in Fat-fed Hamsters. Male golden hamsters kept individually were pre-treated for 7 days with a diet containing grated coconut (40 cal. % fat). The animals were then divided into groups each comprising 5 animals. During the treatment the animals were maintained on the same diet. Each test substance was firstly homogenized in 9 ml of water and subsequently mixed with the milled diet. The controls received only feed converted into a paste with water. The animals were treated for 10 days with a test substance dosage of 200 μmol (about 70-120 mg/kg/ay). Blood samples (200 μl) were removed via the jugular vein under light anaesthesia on the last day of the pre-treatment and one day after the last administration of test substance. The plasma cholesterol concentration was determined using a calorimetric enzyme method. The plasma lipoproteins were separated by exclusion chromatography ([…] et al., Science Tools, 36, 1992, 10-12). The total cholesterol was determined in each fraction using a fluorometric enzyme method (Gamble et al., J. Lipid Res., 19, 1978, 1068-1071) in order to calculate the amount of cholesterol in the LDL and HDL fractions. The activity on plasma cholesterol and LDL and HDL cholesterol, expressed in percent of the control animals, for the products of Examples 8a and 12 is reproduced in the following Table: […]

Test [1] concerns the target T1, human liver microsomal 2,3-oxidosqualene-lanosterol cyclase (OSC) (Homo sapiens, UniProt P48449).
T1 construct: Liver microsomes from a healthy volunteer were prepared in sodium phosphate buffer (pH 7.4); from tissue; host or cells: human liver microsomes from a healthy volunteer
T1 sequence (P48449 1-732): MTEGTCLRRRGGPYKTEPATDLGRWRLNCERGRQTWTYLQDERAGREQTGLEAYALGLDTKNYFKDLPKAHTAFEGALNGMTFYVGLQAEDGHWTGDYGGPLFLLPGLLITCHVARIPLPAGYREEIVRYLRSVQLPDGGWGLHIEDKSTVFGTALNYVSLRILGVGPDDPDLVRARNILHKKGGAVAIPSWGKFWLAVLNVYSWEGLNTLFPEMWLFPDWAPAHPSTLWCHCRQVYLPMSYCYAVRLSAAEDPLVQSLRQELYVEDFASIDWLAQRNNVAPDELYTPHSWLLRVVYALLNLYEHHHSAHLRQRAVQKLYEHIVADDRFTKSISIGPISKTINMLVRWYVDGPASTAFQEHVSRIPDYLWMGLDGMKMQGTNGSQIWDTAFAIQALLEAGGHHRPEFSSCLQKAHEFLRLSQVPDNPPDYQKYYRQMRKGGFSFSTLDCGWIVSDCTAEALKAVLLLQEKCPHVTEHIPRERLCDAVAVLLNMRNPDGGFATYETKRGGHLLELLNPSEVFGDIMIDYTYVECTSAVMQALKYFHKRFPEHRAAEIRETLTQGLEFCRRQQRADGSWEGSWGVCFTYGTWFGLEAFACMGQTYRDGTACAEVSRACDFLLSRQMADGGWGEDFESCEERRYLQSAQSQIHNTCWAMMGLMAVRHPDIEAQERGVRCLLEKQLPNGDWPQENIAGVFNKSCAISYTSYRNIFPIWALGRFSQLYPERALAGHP
The test is described as follows: Inhibition of human liver microsomal 2,3-oxidosqualene-lanosterol cyclase (OSC). It is filed as biochemical. Conditions: human liver microsomes; for IC50: concentration reducing conversion of MOS into lanosterol to 50% of control. On the procedure: Inhibition of Human Liver Microsomal 2,3-Oxidosqualene-lanosterol Cyclase (OSC)
Liver microsomes from a healthy volunteer were prepared in sodium phosphate buffer (pH 7.4). The OSC activity was measured in the same buffer which also contained 1 mM EDTA and 1 mM dithiothreitol. The microsomes were diluted to 0.8 mg/ml protein in cold phosphate buffer. Dry [^14C]R,S-monooxidosqualene (MOS; 12.8 mCi/mmol) was diluted to 20 nCi/μl with ethanol and mixed with phosphate buffer-1% BSA (Bovine Serum Albumin). A stock solution of 1 mM test substance in DMSO was diluted to the desired concentration with phosphate buffer-1% BSA. 40 μl of microsomes were mixed with 20 μl of the solution of the test substance and the reaction was subsequently started with 20 μl of the [^14C]R,S-MOS solution. The final conditions were: 0.4 mg/ml of microsomal proteins and […] of [^14C]R,S-MOS in phosphate buffer, pH 7.4, containing 0.5% albumin, DMSO <0.1% and ethanol <2%, in a total volume of 80 μl.
After 1 hour at 37° C. the reaction was stopped by the addition of 0.6 ml of 10% KOH-methanol, 0.7 ml of water and 0.1 ml of hexane:ether (1:1, v/v) which contained 25 μg of non-radioactive MOS and 25 μg of lanosterol as the carrier. After shaking 1 ml of hexane:ether (1:1, v/v) was added to each test tube, these were again shaken and then centrifuged. The upper phase was transferred into a glass test tube, the lower phase was again extracted with hexane:ether and combined with the first extract. The entire extract was evaporated to dryness with nitrogen and the residue was suspended in 50 μl of hexane:ether and applied to a silica gel plate. Chromatographic separation was effected in hexane:ether (1:1, v/v) as the eluent. […] After drying radioactive MOS and lanosterol were observed on the silica gel plate. The ratio of MOS to lanosterol was determined from the radioactive bands in order to determine the OSC inhibition.
The test was carried out on the one hand with a constant test substance concentration of 100 nM and the percentage OSC inhibition against controls was calculated. In addition, the test was carried out with different test substance concentrations and subsequently the IC50 value was calculated, i.e. the concentration required to reduce the conversion of MOS into lanosterol to 50% of the control value.
(In general: Microsomes from liver hold many membrane-bound enzymes, among them those of drug oxidation.)

The next test concerns Cryptococcus neoformans. The test is described as follows: Antifungal activity in vitro, microdilution method. Conditions: growth inhibition, incubation at 27° C. for 48 hours, read-out: IC50 (mg/ml) for: C. neoformans after: 48 hours. The class given is cell-based. How it is done:
(§1) Antifungal Activity In Vitro The compounds were tested for antifungal activity against Candida albicans, Cryptococcus neoformans and Aspergillus fumigatus using a microdilution method on microtitre plates (96 wells per plate). Yeast supplemented with 1% glucose and 0.25% di-potassium phosphate was used for the three fungal strains. The fungal cells were inoculated at 3×10^4 CFU (Colony Forming Unit) in […] of medium per well. The medium contained increasing concentrations of test substance. After incubation at 27° C. for 24 or 48 hours the turbidity in each well was measured by a microtitre plate reader. The growth inhibition was calculated in comparison to a control (without test substance). The IC50 value given in the following Table is the concentration of test substance at which the growth is inhibited by 50%.

Another test deals with Candida albicans. In words: Antifungal activity in vitro, microdilution method. Conditions: growth inhibition. The class given is cell-based. On the procedure:
as §1
For orientation: Broth dilution looks for growth in wells or tubes with falling amounts of substance.

In another test the test system is Aspergillus fumigatus. The test is described as follows: Antifungal activity in vitro, microdilution method. The note with it: growth inhibition, incubation at 27° C. for 48 hours, read-out: IC50 (mg/ml) for: A. fumigatus after: 48 hours. It is filed as cell-based. On the procedure:
as §1

[2] abbreviates: constant test substance concentration of 100 nM, 1 hour at 37° C., against controls.
The mark [3] stands for this setting: incubation at 27° C. for 24 hrs., read-out: IC50 (mg/ml) for: C. albicans after: 24 hrs.
Where [4] appears, read: incubation at 27° C. for 48 hrs., read-out: IC50 (mg/ml) for: C. albicans after: 48 hrs.

Each structure is given as a SMILES string. Values after ≈ are worked out from the molar mass of the structure shown. Where two headings read alike, the source gives them in different places.

Regarding `C=CCN(C)C/C=C/COc1ccc(C(C)(O)c2ccc(Br)cc2)cc1` (racemic) [Example 8a, (E)-(RS)-1-[4-[4-(allyl-methyl-amino)-but-2-enyloxy]-phenyl]-(4-bromo-phenyl)-ethanol], in the test on plasma cholesterol, the HDL cholesterol is −18%, the LDL cholesterol is given as −51% and the Total cholesterol is recorded as −30%. Besides, in test [1], the IC50 came to 18 nM. The “Inhibition of OSC (%)” value in test [1] (setting [2]) is listed as 82%.

`CN(C/C=C/COc1ccc(C(=O)c2ccc(Br)cc2)cc1)C1CC1` [Example 12, (E)-(4-bromo-phenyl)-[4-[4-(cyclopropyl-methyl-amino)-but-2-enyloxy]-phenyl]-methanone]: in the test with plasma cholesterol, the HDL cholesterol is reported as −23%, the LDL cholesterol is given as −54% and the Total cholesterol is recorded as −25%. The same molecule registered an IC50 in test [1] of 19 nM. Moreover, the inhibition – broadly, the relative decrease from the control value, in per cent – at 0.1 µM in test [1] (setting [2]) was 84%.

`C=CCN(C)C/C=C/COc1ccc(C(=O)/C=C/C=C(C)C)cc1F` [Example 25, (E)-1-[4-[(E)-4-(allyl-methyl-amino)-but-2-enyloxy]-3-fluoro-phenyl]-5-methyl-hexa-2,4-dien-1-one]: the IC50 with Cryptococcus neoformans was 0.001 mg/mL (≈ 2.91 µM); with Candida albicans (setting [3]) it was 0.00032 mg/mL (≈ 0.932 µM); in the test with Candida albicans (setting [4]), less than 0.00032 mg/mL; with Aspergillus fumigatus it was 0.00082 mg/mL (≈ 2.39 µM).

Regarding `C=CCN(C)C/C=C/COc1ccc(C(=O)/C=C/C=C(C)C)cc1` [Example 26c, (E)-1-[4-[(E)-4-(allyl-methyl-amino)-but-2-enyloxy]-phenyl]-5-methyl-hexa-2,4-dien-1-one], the IC50 in the test on Cryptococcus neoformans was determined as 0.0027 mg/mL (≈ 8.3 µM); with Candida albicans (setting [3]) it was 0.00049 mg/mL (≈ 1.51 µM); with Candida albicans (setting [4]), 0.0057 mg/mL (≈ 17.5 µM); in the test on Aspergillus fumigatus, 0.0084 mg/mL (≈ 25.8 µM).

In the case of `C=CCN(C)C/C=C/CNc1ccc(C(=O)c2ccc(Br)cc2)cc1F` [Example 29], the IC50 in the test on Cryptococcus neoformans is less than 0.00032 mg/mL; in the test on Candida albicans (setting [3]) it was 0.00071 mg/mL (≈ 1.7 µM); in the test with Candida albicans (setting [4]), 0.021 mg/mL (≈ 50.3 µM); with Aspergillus fumigatus, 0.00071 mg/mL (≈ 1.7 µM); in test [1], 4.5 nM. Further, testing at 0.1 µM in test [1] (setting [2]) gave an inhibition of 91%.

Consider `C=CCN(C)CCCCCCOc1ccc(C(=O)c2ccc(Br)cc2)c(N)c1` [Example 36, [2-amino-4-[6-(allyl-methyl-amino)-hexyloxy]-phenyl]-(4-bromo-phenyl)-methanone], for which the IC50 with Cryptococcus neoformans was less than 0.00032 mg/mL; in the test with Candida albicans (setting [3]), less than 0.00032 mg/mL; in the test with Candida albicans (setting [4]), 0.0011 mg/mL (≈ 2.47 µM); in the test with Aspergillus fumigatus, 0.0024 mg/mL (≈ 5.39 µM); in test [1] it was 8.9 nM. In test [1] (setting [2]), this molecule gave an inhibition at 0.1 µM of 92%.

`C=CCN(C)CCCCCCOc1ccc(C(=O)c2ccc(Br)cc2)nc1` [Example 43b, [5-[6-(allyl-methyl-amino)-hexyloxy]-pyridin-2-yl]-(4-bromo-phenyl)-methanone]: the IC50 in the test with Cryptococcus neoformans was less than 0.00032 mg/mL; with Candida albicans (setting [3]) it was less than 0.00032 mg/mL; in the test on Candida albicans (setting [4]) it was 0.005 mg/mL (≈ 11.6 µM); in the test on Aspergillus fumigatus, 0.0064 mg/mL (≈ 14.8 µM).

As to `C=CCN(C)C/C=C(\C)CC/C=C(\C)CCC(=O)CCC=C(C)C` [Example 54b, (9E,13E)-15-(allyl-methyl-amino)-2,9,13-trimethyl-pentadeca-2,9,13-trien-6-one], the IC50 in the test on Cryptococcus neoformans is 0.00069 mg/mL (≈ 2.08 µM); in the test on Candida albicans (setting [3]), less than 0.00032 mg/mL; in the test on Candida albicans (setting [4]), 0.0065 mg/mL (≈ 19.6 µM); with Aspergillus fumigatus, 0.0061 mg/mL (≈ 18.4 µM). The molecule further yielded an inhibition at 0.1 µM in test [1] (setting [2]) of 73%.
